According to patent US10655105B2, “Method for proliferation of pancreatic progenitor cells” (Takeda Pharmaceutical Company Limited, priority 2014, dated 2020):

Experiments:
[1] = test system: 297L1 cell-derived pancreatic progenitor cells (passage number: 7); assay: Differentiation induction of insulin-producing cells from proliferated pancreatic progenitor cells, NKX6.1/INSULIN immunofluorescence staining; assay type: cell-based, human; conditions: cultured 9 days in IMEM-option Zn++ medium with 1% B-27; FIG. 9
Excerpt: Study was made on whether the proliferated and repetitively passaged pancreatic progenitor cells would have the ability to differentiate into INSULIN-producing cells. The cells used were 297L1 cell-derived pancreatic progenitor cells (passage number: 7). The pancreatic progenitor cells brought to a single cell state using Accutase were inoculated at 6×10^4 cells/well to a 96-well plate coated with Matrigel. The culture solution used was IMEM-option Zn^++ medium (containing 1% B-27®) supplemented with XAV939 (1 μM), Y27632 (10 μM), and bFGF (50 ng/ml). The cells were cultured for 2 days to render the cell density confluent. Then, the cells were washed with IMEM-option Zn^++ medium and then cultured for 9 days using IMEM-option Zn^++ medium (containing 1% B-27®) supplemented with ALKS inhibitor II. […] 4% PFA was added to the cells thus cultured, and the cells were fixed at room temperature for 30 minutes. The cells were further reacted with an anti-NKX6.1 antibody and an anti-INSULIN antibody (DAKO, A0564) as primary antibodies and further with an Alexa 488-labeled secondary antibody or an Alexa 568-labeled secondary antibody as a secondary antibody, sequentially, and then observed under a fluorescence microscope.

[2] = test system: 297L1 cell-derived pancreatic progenitor cells (passage number: 7); conditions: Stem Cell Research 2012, 8, 274-284; cited from earlier work
[3] = test system: PDX1-positive cells differentiation-induced from human iPS cell line 253G1; assay: Induction of pancreatic progenitor cells from PDX1-positive cells (253G1 iPS-derived), anti-PDX1/anti-NKX6.1 immunofluorescence staining; assay type: cell-based; conditions: cultured 7 days, IMEM-option Zn++ medium with 1% B-27; XAV939 1 μM and/or bFGF 100 ng/ml; FIG. 1
Procedure: The PDX1-positive cells differentiation-induced on a Matrigel-coated dish according to Reference Example 1 were washed with IMEM-option Zn^++ medium and then further cultured for 7 days in IMEM-option Zn^++ medium (containing 1% B-27®) supplemented with XAV939 (1 μM) and/or bFGF (100 ng/ml) (PeproTech, Inc.).
In order to examine the expression of PDX1 and NKX6.1 proteins in the cells thus cultured, immunofluorescence staining was carried out using an anti-PDX1 antibody and an anti-NKX6.1 antibody. […] Then, the cells were reacted with an anti-PDX1 antibody (AF2419, R&D Systems, Inc.) and an anti-NKX6.1 antibody (55F55A12-c, Developmental Studies Hybridoma Bank) as primary antibodies and further with an Alexa 488-labeled secondary antibody or an Alexa 568-labeled secondary antibody (both from Life Technologies Corp.) as a secondary antibody, sequentially, and then observed under a fluorescence microscope.
The PDX1-positive cells differentiation-induced on a Matrigel-coated dish according to Reference Example 1 were washed with IMEM-option Zn^++ medium. […] The cells thus cultured were subjected to the immunofluorescence staining described in Example 1 and observed under a fluorescence microscope.

| Compound | appearance of INSULIN-positive cells [1] | induction of INSULIN-positive cells [2] | cells expressing PDX1 and NKX6.1 (immunofluorescence staining) [3] |
| --- | --- | --- | --- |
| Cc1cccc(-c2[nH]ncc2-c2ccc3ncccc3n2)n1 [ALKS inhibitor II] | INSULIN-positive cells appeared | known to induce INSULIN-positive cells |  |
| O=c1[nH]c(-c2ccc(C(F)(F)F)cc2)nc2c1CSCC2 [XAV939, 2-(4-trifluoromethylphenyl)-7,8-dihydro-5H-thiopyrano[4,3-d]pyrimidin-4(3H)-one] |  |  | cells coexpressing PDX1 and NKX6.1 were few in number |
| bFGF: FGF signal transduction activator, bFGF (FGF2) |  |  | cells coexpressing PDX1 and NKX6.1 were few in number |
